Biological target: T1, human CTPS1 (Homo sapiens, UniProt P17812)
T1 construct: FLAG (with GG linker); His8 (with GG linker); purchased Proteros biostructures GmbH
T1 sequence (P17812 1-591): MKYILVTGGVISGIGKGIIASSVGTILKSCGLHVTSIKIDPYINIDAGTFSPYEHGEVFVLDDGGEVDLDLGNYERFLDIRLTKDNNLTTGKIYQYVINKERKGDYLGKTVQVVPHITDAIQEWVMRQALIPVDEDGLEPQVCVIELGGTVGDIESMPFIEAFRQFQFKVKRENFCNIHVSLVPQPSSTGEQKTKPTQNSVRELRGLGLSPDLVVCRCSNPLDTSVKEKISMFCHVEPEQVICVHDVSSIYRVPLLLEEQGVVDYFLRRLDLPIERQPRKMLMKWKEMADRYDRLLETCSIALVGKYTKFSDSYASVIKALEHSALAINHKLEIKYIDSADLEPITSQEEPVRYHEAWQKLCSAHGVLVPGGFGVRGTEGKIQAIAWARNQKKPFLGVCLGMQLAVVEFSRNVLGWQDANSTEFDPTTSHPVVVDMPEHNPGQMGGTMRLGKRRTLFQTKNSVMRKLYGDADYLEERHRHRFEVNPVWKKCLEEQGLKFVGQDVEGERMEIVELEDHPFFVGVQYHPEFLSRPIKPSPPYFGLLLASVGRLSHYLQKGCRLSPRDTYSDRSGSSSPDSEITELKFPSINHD
Assay: Human CTPS1 enzyme inhibition, ADP-Glo Max assay
Type: biochemical
Details: ADP-Glo Max assay; Table 10; read-out: Human CTPS1 Enzyme Inhibition, IC50 grouped by potency range (CTPS1)
How it was run: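 Enzyme preincubated with compound for 10 min at 25 °C in 50 mM Tris pH 8.0, 10 mM MgCl2, 0.01% Tween-20, 2 mM L-cysteine. ATP-to-ADP conversion detected by ADP-Glo Max luminescence after 60 min depletion and 60 min development steps. Percentage inhibition calculated per concentration.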

Row | IC50 | Structure (SMILES)
1 | 100 to 1000 nM | CC(C)(C(=O)Nc1ccc(-c2cncnc2)cn1)c1csc(NS(=O)(=O)C2CC2)n1 [T264, 2-(2-(cyclopropanesulfonamido)thiazol-4-yl)-2-methyl-N-(5-(pyrimidin-5-yl)pyridin-2-yl)propanamide]
2 | < 100 nM | COc1cncc(-c2ccc(NC(=O)C(C)(C)c3csc(NS(=O)(=O)C4CC4)n3)cc2)n1 [T265, 2-(2-(cyclopropanesulfonamido)thiazol-4-yl)-N-(4-(6-methoxypyrazin-2-yl)phenyl)-2-methylpropanamide]
3 | < 100 nM | Cc1cncc(-c2ccc(NC(=O)C(C)(C)c3csc(NS(=O)(=O)C4CC4)n3)cc2)n1 [T266, 2-(2-(cyclopropanesulfonamido)thiazol-4-yl)-2-methyl-N-(4-(6-methylpyrazin-2-yl)phenyl)propanamide]
4 | < 100 nM | CC(C)(C(=O)Nc1ccc(-c2cncc(C(F)(F)F)n2)cc1)c1csc(NS(=O)(=O)C2CC2)n1 [T267, 2-(2-(cyclopropanesulfonamido)thiazol-4-yl)-2-methyl-N-(4-(6-(trifluoromethyl)pyrazin-2-yl)phenyl)propanamide]
5 | 100 to 1000 nM | CC(C)(C(=O)Nc1ccc(-c2cccc(Cl)n2)cc1)c1csc(NS(=O)(=O)C2CC2)n1 [T268, N-(4-(6-chloropyridin-2-yl)phenyl)-2-(2-(cyclopropanesulfonamido)thiazol-4-yl)-2-methylpropanamide]
6 | 100 to 1000 nM | COc1cccc(-c2ccc(NC(=O)C(C)(C)c3csc(NS(=O)(=O)C4CC4)n3)cc2)n1 [T269, 2-(2-(cyclopropanesulfonamido)thiazol-4-yl)-N-(4-(6-methoxypyridin-2-yl)phenyl)-2-methylpropanamide]
7 | 100 to 1000 nM | CC(C)(C(=O)Nc1ccc(-c2cccc(C(F)(F)F)n2)cc1)c1csc(NS(=O)(=O)C2CC2)n1 [T270, 2-(2-(cyclopropanesulfonamido)thiazol-4-yl)-2-methyl-N-(4-(6-(trifluoromethyl)pyridin-2-yl)phenyl)propanamide]
8 | 1000 to 10000 nM | COc1ccnc(-c2ccc(NC(=O)C(C)(C)c3csc(NS(=O)(=O)C4CC4)n3)cc2)c1 [T271, 2-(2-(cyclopropanesulfonamido)thiazol-4-yl)-N-(4-(4-methoxypyridin-2-yl)phenyl)-2-methylpropanamide]
9 | < 100 nM | CC(C)Oc1cncc(-c2ccc(NC(=O)C(C)(C)c3csc(NS(=O)(=O)C4CC4)n3)cc2)n1 [T272, 2-(2-(cyclopropanesulfonamido)thiazol-4-yl)-N-(4-(6-isopropoxypyrazin-2-yl)phenyl)-2-methylpropanamide]
10 | < 100 nM | CC(C)(C(=O)Nc1ccc(-c2cncc(OC3CC3)n2)cc1)c1csc(NS(=O)(=O)C2CC2)n1 [T273, 2-(2-(cyclopropanesulfonamido)thiazol-4-yl)-N-(4-(6-cyclopropoxypyrazin-2-yl)phenyl)-2-methylpropanamide]
11 | < 100 nM | COc1cncc(-c2ccc(NC(=O)C(C)(C)c3csc(NS(=O)(=O)C4CC4)n3)c(F)c2)n1 [T275, 2-(2-(cyclopropanesulfonamido)thiazol-4-yl)-N-(2-fluoro-4-(6-methoxypyrazin-2-yl)phenyl)-2-methylpropanamide]
12 | 100 to 1000 nM | Cc1ncc(Cl)nc1-c1ccc(NC(=O)C(C)(C)c2csc(NS(=O)(=O)C3CC3)n2)cc1 [T276, N-(4-(6-chloro-3-methylpyrazin-2-yl)phenyl)-2-(2-(cyclopropanesulfonamido)thiazol-4-yl)-2-methylpropanamide]
13 | < 100 nM | CC(C)(C(=O)Nc1ccc(-c2cncc(N3CCCC3)n2)cc1)c1csc(NS(=O)(=O)C2CC2)n1 [T278, 2-(2-(cyclopropanesulfonamido)thiazol-4-yl)-2-methyl-N-(4-(6-(pyrrolidin-1-yl)pyrazin-2-yl)phenyl)propanamide]
14 | 1000 to 10000 nM | CN(C)CCOc1cncc(-c2ccc(NC(=O)C(C)(C)c3csc(NS(=O)(=O)C4CC4)n3)cc2)n1 [T279, 2-(2-(cyclopropanesulfonamido)thiazol-4-yl)-N-(4-(6-(2-(dimethylamino)ethoxy)pyrazin-2-yl)phenyl)-2-methylpropanamide]
15 | 1000 to 10000 nM | Cc1nccnc1-c1ccc(NC(=O)C(C)(C)c2csc(NS(=O)(=O)C3CC3)n2)cc1 [T280, 2-(2-(cyclopropanesulfonamido)thiazol-4-yl)-2-methyl-N-(4-(3-methylpyrazin-2-yl)phenyl)propanamide]
16 | 100 to 1000 nM | CC(=O)Nc1cncc(-c2ccc(NC(=O)C(C)(C)c3csc(NS(=O)(=O)C4CC4)n3)cc2)n1 [T281, N-(4-(6-acetamidopyrazin-2-yl)phenyl)-2-(2-(cyclopropanesulfonamido)thiazol-4-yl)-2-methylpropanamide]

Row | IC50 | Structure (SMILES)
17 | 100 to 1000 nM | Cc1ncc(-c2ccc(NC(=O)C(C)(C)c3csc(NS(=O)(=O)C4CC4)n3)cc2)nc1C [T282, 2-(2-(cyclopropanesulfonamido)thiazol-4-yl)-N-(4-(5,6-dimethylpyrazin-2-yl)phenyl)-2-methylpropanamide]
18 | 100 to 1000 nM | CC(C)(C(=O)Nc1ccc(-c2cncc(CO)n2)cc1)c1csc(NS(=O)(=O)C2CC2)n1 [T283, 2-(2-(cyclopropanesulfonamido)thiazol-4-yl)-N-(4-(6-(hydroxymethyl)pyrazin-2-yl)phenyl)-2-methylpropanamide]
19 | 1000 to 10000 nM | Cc1cnc(C)c(-c2ccc(NC(=O)C(C)(C)c3csc(NS(=O)(=O)C4CC4)n3)cc2)n1 [T284, 2-(2-(cyclopropanesulfonamido)thiazol-4-yl)-N-(4-(3,6-dimethylpyrazin-2-yl)phenyl)-2-methylpropanamide]
20 | < 100 nM | COc1cncc(-c2ccc(NC(=O)C(C)(C)c3csc(NS(=O)(=O)C4CC4)n3)c(C)c2)c1 [T285, 2-(2-(cyclopropanesulfonamido)thiazol-4-yl)-N-(4-(5-methoxypyridin-3-yl)-2-methylphenyl)-2-methylpropanamide]
21 | < 100 nM | Cc1cc(-c2cncc(C#N)c2)ccc1NC(=O)C(C)(C)c1csc(NS(=O)(=O)C2CC2)n1 [T286, N-(4-(5-cyanopyridin-3-yl)-2-methylphenyl)-2-(2-(cyclopropanesulfonamido)thiazol-4-yl)-2-methylpropanamide]
22 | < 100 nM | Cc1cc(-c2cncc(F)c2)ccc1NC(=O)C(C)(C)c1csc(NS(=O)(=O)C2CC2)n1 [T287, 2-(2-(cyclopropanesulfonamido)thiazol-4-yl)-N-(4-(5-fluoropyridin-3-yl)-2-methylphenyl)-2-methylpropanamide]
23 | 100 to 1000 nM | Cc1cc(NC(=O)C(C)(C)c2csc(NS(=O)(=O)C3CC3)n2)ccc1-c1cncc(Cl)c1 [T288, N-(4-(5-chloropyridin-3-yl)-3-methylphenyl)-2-(2-(cyclopropanesulfonamido)thiazol-4-yl)-2-methylpropanamide]
24 | 100 to 1000 nM | CCOc1cc(NC(=O)C(C)(C)c2csc(NS(=O)(=O)C3CC3)n2)ccc1-c1cncc(C#N)c1 [T289, N-(4-(5-cyanopyridin-3-yl)-3-ethoxyphenyl)-2-(2-(cyclopropanesulfonamido)thiazol-4-yl)-2-methylpropanamide]
25 | < 100 nM | CCOc1cncc(-c2ccc(NC(=O)C(C)(C)c3csc(NS(=O)(=O)C4CC4)n3)cc2)c1 [T290, 2-(2-(cyclopropanesulfonamido)thiazol-4-yl)-N-(4-(5-ethoxypyridin-3-yl)phenyl)-2-methylpropanamide]
26 | 100 to 1000 nM | COc1cncc(-c2cnc(NC(=O)C(C)(C)c3csc(NS(=O)(=O)C4CC4)n3)nc2)c1 [T292, 2-(2-(cyclopropanesulfonamido)thiazol-4-yl)-N-(5-(5-methoxypyridin-3-yl)pyrimidin-2-yl)-2-methylpropanamide]
27 | 100 to 1000 nM | CC(C)(C(=O)Nc1ncc(-c2cncc(F)c2)cn1)c1csc(NS(=O)(=O)C2CC2)n1 [T293, 2-(2-(cyclopropanesulfonamido)thiazol-4-yl)-N-(5-(5-fluoropyridin-3-yl)pyrimidin-2-yl)-2-methylpropanamide]
28 | 100 to 1000 nM | CC(C)(C(=O)Nc1ncc(-c2cncc(C(F)(F)F)c2)cn1)c1csc(NS(=O)(=O)C2CC2)n1 [T294, 2-(2-(cyclopropanesulfonamido)thiazol-4-yl)-2-methyl-N-(5-(5-(trifluoromethyl)pyridin-3-yl)pyrimidin-2-yl)propanamide]
29 | 100 to 1000 nM | CCOc1cncc(-c2ccc(NC(=O)C(C)(C)c3csc(NS(=O)(=O)CC(C)C)n3)nc2)n1 [T295, N-(5-(6-ethoxypyrazin-2-yl)pyridin-2-yl)-2-methyl-2-(2-((2-methylpropyl)sulfonamido)thiazol-4-yl)propanamide]
30 | 100 to 1000 nM | CCOc1cncc(-c2ccc(NC(=O)C(C)(C)c3csc(NS(=O)(=O)C(F)(F)F)n3)cc2)n1 [T296, N-(4-(6-ethoxypyrazin-2-yl)phenyl)-2-methyl-2-(2-((trifluoromethyl)sulfonamido)thiazol-4-yl)propanamide]
31 | 1000 to 10000 nM | CC(C)S(=O)(=O)Nc1nc(C(C)(C)C(=O)Nc2ccc(-c3cccnc3)cc2)cs1 [T297, 2-methyl-2-(2-((1-methylethyl)sulfonamido)thiazol-4-yl)-N-(4-(pyridin-3-yl)phenyl)propanamide]

— patent publication US20230086703A1, “N-(4-(5-chloropyridin-3-yl)phenyl)-2-(2-(cyclopropanesulfonamido)pyrimidin-4-yl) butanamide derivatives and related compounds as human CTPS1 inhibitors for the treatment of proliferative diseases” (Step Pharma S.A.S., priority 2019, published 2023)
